Measured values reported in patent US20160235677A1, “METHOD OF CONVERTING A CRYSTALLINE COMPOUND TO AN AMORPHOUS COMPOUND, METHOD OF INCREASING THE SOLUBILITY OF A CRYSTALLINE COMPOUND IN A BIORELEVANT FLUID, AND NANOPARTICLES THAT ACHIEVE SUPERSATURATION” (Nanocopoeia, LLC., priority 2014, published 2016).
In brackets after ≈: the same amount, converted by molar mass. Like-named read-outs stand apart in the source and are kept apart here.

What was measured:
[1] = Caco-2 Monolayer Test Method; type: in vitro ADME; settings: human; Caco-2 monolayers, apical to basolateral, powder equivalent to 200 μg GF in 1 mL buffer pH 7.4, 2 h
Procedure: Caco-2 monolayers are prepared in Millipore 96-cell Caco-2 plates and are used after a 3-week differentiation period. The monolayers separate the apical, or donor well, from the basolateral, or recipient well. The buffer used for the apical side is 1.98 g/L glucose in 10 mM HEPES, Hank's Balanced Salt Solution (HBSS) lx, with calcium, magnesium, without phenol red (HyClone, Logan, Utah) pH 7.4. The impermeable dye Lucifer yellow (in an amount of 100 μM) is added to test monolayer integrity. The basolateral side buffer is buffer, pH 7.4, without dye. […] The amount of test powder is selected to assure that if the powder was completely dissolved, the amount is sufficient to achieve ˜12 to 13 times the saturation concentration of the compound of interest previously measured in HBSS (15 μg/mL), in other words, a supersaturated solution. […] Where the compound of interest is not a substrate for p-glycoprotein (pGP), B→A efflux is not measured.
Buffer test samples are added to apical wells at 1 h after preparation and buffer alone is added to the basolateral side. […] The plates are assumed to be intact if there is no increase in fluorescence from leaking Lucifer yellow dye from the apical side. Individual cell monolayers are assumed intact if there is no increase in fluorescence in aliquots taken from the basolateral wells. […]

[2] = Dissolution in Biorelevant Medium Using Non-Sink Condition (griseofulvin powders in FaSSIF); type: physicochemical; settings: GF dissolution in FaSSIF, 5 hour experiment
Procedure: A modified low-volume shaker flask method is used to assess the dissolution behavior of samples under supersaturated conditions. A 75 mL aliquot of FaSSIF, adjusted to pH 6.5, is added to each of six 150 mL Erlenmeyer flasks, which are then stoppered. The liquid is then heated to and maintained at 37° C.±1° C. using a benchtop incubated orbital shaker with a multi position stir plate (Forma Scientific 4520, Thermo Fisher Scientific, Waltham, Mass.). A 38 mm×9 mm stir bar is placed in each flask and stirring is started at 150 rotations per minute (RPM). A control sample, containing the compound of interest, and experimental samples are added to separate flasks in amounts sufficient to provide an amount of the compound of interest equivalent to the control sample. At each of 5 min, 15 min, 20 min, 30 min, 45 min, 60 min, 120 min, 240 min, and 300 min, 3 mL of dissolution media is removed from each flask, and immediately filtered through a 13 mm, 0.2 μm nylon filter with glass prefilter (EMD Millipore, Billerica, Mass.) after first discarding the first 2 mL of the sample. […]
The HPLC analysis is performed using an Ace C18, 2.1×150 mm, 3 μm chromatographic column maintained at 30° C. […] Quantification is performed based on linear calibration curve ranging from 10 ng/mL to 1000 ng/mL using peak response ratio.
For the Dissolution in Biorelevant Medium Using Non-Sink Condition analysis, a 24 mg sample of Control 1, i.e., griseofulvin powder, and an amount of Examples 1-7 sufficient to provide an amount of griseofulvin equivalent to the amount of Control 1, i.e., 24 mg, was added to each flask. Quantification was performed based on linear calibration curve ranging from 10 to 1000 ng/mL using peak response ratio. […]
Dry powder produced as describe above in Examples 8-11 was evaluated in the biorelevant medium FaSSIF, comparing ENS-processed powders with physical mixtures at similar ratios of GF:SP. […]

[3] = X-Ray Powder Diffraction (XRD) crystallinity / physical state; type: physicochemical; settings: griseofulvin materials, result in words
Procedure: X-ray powder diffraction is performed at room temperature using a Bruker D8 Discover using a Cu Kα radiation, point source filtered with a graphite monochromator and a Bruker Hi-Star two-dimensional x-ray detector (Bruker, Karlsruhe, Germany). Powder samples are pressed onto a sample holder made of single-crystal quartz cut off-axis. The reflected intensity is collected at 0.04° resolution from 2Θ=2° to 62° with an acquisition time of 20 minutes. Data analysis is performed using the JADE 8.0 software package (Materials Data Inc., Livermore, Calif.) with whole pattern fitting. The test method has a detection limit of 2% crystallinity. […]

[4] = Equilibrium / saturation solubility in test media; type: physicochemical; settings: GF, previously measured
[5] = non-sink, 24 mg GF equivalent in 75 mL, 37° C.

Papp A→B at 2 h, 200 μg/mL [1]: 28 ± 2.5 ×10⁻⁶ cm/s
Cmax [2, 5]: 18300 ng/mL
Tmax [2, 5]: 30 min
AUC ([2]; area under the concentration-time curve): 5,202
physical state by XRD [3]: completely crystalline material
solubility thermodynamic ([4]; HBSS, saline or isotonic, read-out: saturation concentration in HBSS): 15 µg/mL (≈ 42.5 µM)
solubility thermodynamic ([4]; water, thermodynamic from solid, read-out: equilibrium solubility in water): 6 to 10 µg/mL (≈ 17 to 28.3 µM)
Structure (SMILES): COC1=CC(=O)C[C@@H](C)[C@]12Oc1c(Cl)c(OC)cc(OC)c1C2=O [Control 1, (+)-griseofulvin]
